These results are taken from patent US20140205566A1, “CYCLIC NUCLEUOSIDE DERIVATIVES AND USES THEREOF” (NOVARTIS AG, priority 2012, published 2014).

In brackets after ≈: the same amount, converted by molar mass.

Holding throughout (assay type): physicochemical
A short description of data set [1]: Bulk-state stability and thermal conversion of crystalline forms. Conditions: one week when stored at 50° C., 50° C./75% RH and 80° C.
Data set [2] in a line: Solubility of crystalline Form I and Form II in various media.
Data set [3] can be described thus: Slurry competition studies of crystalline forms in 2-propanol. Conditions: 2-propanol at room temperature.
[4] abbreviates: Fasted state simulated intestinal fluid [pH 6.5].
The mark [5] stands for this setting: Fed state simulated intestinal fluid [pH 5.8].

With `CCOC(=O)[C@H](C)N[P@@]1(=O)OC[C@H]2O[C@@H](n3cnc4c(OCC)nc(N)nc43)[C@](C)(F)[C@@H]2O1` [Form I, (S)-ethyl 2-(((2R,4aR,6R,7R,7aR)-6-(2-amino-6-ethoxy-9H-purin-9-yl)-7-fluoro-7-methyl-2-oxidotetrahydro-4H-furo[3,2-d][1,3,2]dioxaphosphinin-2-yl)amino)propanoate], the “chemical and physical stability in bulk state” value in data set [1] is “chemically and physically stable”. For the same molecule, the Solubility in data set [2] (setting [4]) is 0.632 [6.36] mg/ml; in data set [2] (setting [5]) it was 0.665 [5.80] mg/ml; in data set [2] (Simulated gastric fluid [pH 2]), 0.681 [2.11] mg/ml; in data set [2] (Water), 0.799 [3.82] mg/ml; in data set [2] (pH 1 (0.1N HCl)) it was 1.249 [1.39] mg/ml; in data set [2] (pH 3 citrate buffer) it was 0.816 [3.04] mg/ml. Also, the Solubility in data set [2] (pH 4.65 acetate buffer) is 0.687 [4.67] mg/ml; in data set [2] (pH 6.8 phosphate buffer), 0.794 [6.70] mg/ml.
Take `CCOC(=O)[C@H](C)N[P@@]1(=O)OC[C@H]2O[C@@H](n3cnc4c(OCC)nc(N)nc43)[C@](C)(F)[C@@H]2O1` [Form II, (S)-ethyl 2-(((2R,4aR,6R,7R,7aR)-6-(2-amino-6-ethoxy-9H-purin-9-yl)-7-fluoro-7-methyl-2-oxidotetrahydro-4H-furo[3,2-d][1,3,2]dioxaphosphinin-2-yl)amino)propanoate]: the “chemical and physical stability in bulk state” value in data set [1] was “chemically and physically stable”. Moreover, the Solubility in data set [2] (setting [4]) was 0.0888 mg/mL (≈ 182 µM); in data set [2] (setting [5]) it was 0.0995 mg/mL (≈ 204 µM); in data set [2] (Simulated gastric fluid [pH 2]) it was 0.150 mg/mL (≈ 307 µM); in data set [2] (Water) it was 0.0676 mg/mL (≈ 138 µM); in data set [2] (pH 1 (0.1N HCl)), 0.246 mg/mL (≈ 504 µM); in data set [2] (pH 3 citrate buffer) it was 0.0740 mg/mL (≈ 152 µM). For the same molecule, the values for the Solubility in data set [2] (pH 4.65 acetate buffer) and in data set [2] (pH 6.8 phosphate buffer) were 0.0557 mg/mL (≈ 114 µM) and 0.0551 mg/mL (≈ 113 µM), respectively. In addition, the “relative thermodynamic stability (slurry competition)” value in data set [3] was “thermodynamically more stable than Form I and III”.
